Source: ChEMBL document CHEMBL1149340, “Optimization and SAR for dual ErbB-1/ErbB-2 tyrosine kinase inhibition in the 6-furanylquinazoline series” (Bioorg Med Chem Lett, 2006)

Legend:
BT-474 = test: Inhibition of BT474 cell growth after 72 hrs; assay type: functional, cell-based; details: Homo sapiens, BT-474, 72 h
NCI-N87 = test: Inhibition of N87 cell growth after 72 hrs; assay type: functional, cell-based; details: Homo sapiens, NCI-N87, 72 h
[1] = target: Receptor tyrosine-protein kinase erbB-2 (Homo sapiens, UniProt P04626)
Sequence of Receptor tyrosine-protein kinase erbB-2 (P04626 whole entry): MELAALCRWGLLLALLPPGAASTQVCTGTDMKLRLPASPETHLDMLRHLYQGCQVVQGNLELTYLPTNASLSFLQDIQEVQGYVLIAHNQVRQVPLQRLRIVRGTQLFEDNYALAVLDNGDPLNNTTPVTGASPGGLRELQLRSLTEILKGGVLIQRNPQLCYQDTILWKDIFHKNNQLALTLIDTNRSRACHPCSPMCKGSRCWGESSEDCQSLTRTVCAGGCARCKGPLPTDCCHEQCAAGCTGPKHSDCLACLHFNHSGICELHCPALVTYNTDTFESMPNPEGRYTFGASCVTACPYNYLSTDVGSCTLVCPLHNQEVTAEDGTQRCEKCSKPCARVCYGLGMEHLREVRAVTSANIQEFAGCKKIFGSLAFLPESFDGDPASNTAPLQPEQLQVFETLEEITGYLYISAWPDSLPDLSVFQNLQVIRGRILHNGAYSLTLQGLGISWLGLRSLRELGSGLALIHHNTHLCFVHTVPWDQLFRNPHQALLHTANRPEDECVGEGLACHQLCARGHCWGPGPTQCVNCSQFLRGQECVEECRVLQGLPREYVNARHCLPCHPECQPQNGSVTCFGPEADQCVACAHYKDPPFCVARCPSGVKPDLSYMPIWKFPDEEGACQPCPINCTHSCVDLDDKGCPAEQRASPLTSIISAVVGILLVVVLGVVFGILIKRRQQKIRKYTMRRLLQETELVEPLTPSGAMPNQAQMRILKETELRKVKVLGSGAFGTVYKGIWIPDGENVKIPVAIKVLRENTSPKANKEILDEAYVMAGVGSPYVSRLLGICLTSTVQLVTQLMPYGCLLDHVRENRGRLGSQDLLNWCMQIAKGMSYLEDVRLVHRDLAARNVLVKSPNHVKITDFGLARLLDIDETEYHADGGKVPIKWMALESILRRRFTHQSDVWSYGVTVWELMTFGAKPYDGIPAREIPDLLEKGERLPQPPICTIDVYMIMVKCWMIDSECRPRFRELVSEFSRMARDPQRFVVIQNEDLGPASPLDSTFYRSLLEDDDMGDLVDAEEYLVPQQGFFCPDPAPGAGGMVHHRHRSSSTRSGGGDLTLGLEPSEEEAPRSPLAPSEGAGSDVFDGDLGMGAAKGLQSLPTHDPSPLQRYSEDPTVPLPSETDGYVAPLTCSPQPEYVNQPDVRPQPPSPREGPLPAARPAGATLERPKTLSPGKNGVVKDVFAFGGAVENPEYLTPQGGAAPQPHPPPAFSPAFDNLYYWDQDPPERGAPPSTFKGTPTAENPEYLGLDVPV

[2] = target: Epidermal growth factor receptor (Homo sapiens, UniProt P00533)
Sequence of Epidermal growth factor receptor (P00533 whole entry): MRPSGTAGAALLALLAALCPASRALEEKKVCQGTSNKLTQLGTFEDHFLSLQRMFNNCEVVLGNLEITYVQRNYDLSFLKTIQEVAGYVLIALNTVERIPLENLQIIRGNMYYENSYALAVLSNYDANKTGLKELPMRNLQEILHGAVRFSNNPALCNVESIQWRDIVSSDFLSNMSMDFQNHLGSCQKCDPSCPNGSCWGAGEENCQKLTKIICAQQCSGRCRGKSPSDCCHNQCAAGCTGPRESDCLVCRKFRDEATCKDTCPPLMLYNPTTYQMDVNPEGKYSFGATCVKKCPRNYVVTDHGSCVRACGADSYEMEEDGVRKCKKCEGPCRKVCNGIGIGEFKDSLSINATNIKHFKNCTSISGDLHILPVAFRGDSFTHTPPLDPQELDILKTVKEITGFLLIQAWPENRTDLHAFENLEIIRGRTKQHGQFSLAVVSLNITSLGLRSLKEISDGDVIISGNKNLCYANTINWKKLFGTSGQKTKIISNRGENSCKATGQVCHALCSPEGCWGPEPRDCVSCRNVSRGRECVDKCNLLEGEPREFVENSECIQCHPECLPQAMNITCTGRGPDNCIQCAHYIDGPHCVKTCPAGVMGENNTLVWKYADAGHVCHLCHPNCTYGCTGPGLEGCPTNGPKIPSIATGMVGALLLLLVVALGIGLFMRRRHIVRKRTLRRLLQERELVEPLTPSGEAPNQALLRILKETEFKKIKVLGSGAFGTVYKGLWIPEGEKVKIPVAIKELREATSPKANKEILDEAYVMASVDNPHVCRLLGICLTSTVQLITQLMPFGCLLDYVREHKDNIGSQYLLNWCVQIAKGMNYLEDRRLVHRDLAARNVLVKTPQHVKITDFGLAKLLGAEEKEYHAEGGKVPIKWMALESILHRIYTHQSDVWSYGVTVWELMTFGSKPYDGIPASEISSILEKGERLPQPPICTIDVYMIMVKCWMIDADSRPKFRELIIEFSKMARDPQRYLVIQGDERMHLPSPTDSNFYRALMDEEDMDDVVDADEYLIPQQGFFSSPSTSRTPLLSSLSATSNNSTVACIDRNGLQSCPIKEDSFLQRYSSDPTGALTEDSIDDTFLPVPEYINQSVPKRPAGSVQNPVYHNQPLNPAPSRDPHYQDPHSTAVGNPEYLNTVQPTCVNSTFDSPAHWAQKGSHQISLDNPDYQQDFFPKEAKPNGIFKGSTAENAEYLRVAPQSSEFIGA

HN5 = test: cells; details: Homo sapiens, HN5, 72 h
Description: Inhibition of HN5 cell growth after 72 hrs

HFF = test: Inhibition of HFF cell growth; details: Homo sapiens

Structure (SMILES)	IC50 (BT-474) [nM]	IC50 (NCI-N87) [nM]	IC50 [1] [nM]	IC50 [2] [nM]	IC50 (HN5) [nM]	IC50 (HFF) [nM]
O=S(=O)(CCNCc1ccc(-c2ccc3ncnc(Nc4ccc(OCc5cccc(F)c5)c(Cl)c4)c3c2)o1)c1ccccc1	1040	870	30	19	1070	–
O=S(=O)(CCCCNCc1ccc(-c2ccc3ncnc(Nc4ccc(OCc5ccccc5)c(Cl)c4)c3c2)o1)c1ccccc1	–	–	38	50	–	–
CCCN(CCS(C)(=O)=O)Cc1ccc(-c2ccc3ncnc(Nc4ccc(OCc5cccc(F)c5)c(Cl)c4)c3c2)o1	250	–	20	85	–	–
[O-][S+]1CCN(Cc2ccc(-c3ccc4ncnc(Nc5ccc(OCc6cccc(F)c6)c(Cl)c5)c4c3)o2)CC1	100	80	18	28	60	8180
[O-][S+]1CCN(Cc2ccc(-c3ccc4ncnc(Nc5ccc(OCc6ccccc6)c(Cl)c5)c4c3)o2)CC1	420	460	23	12	320	–
CS(=O)(=O)CCNCc1ccc(-c2ccc3ncnc(Nc4ccc(OCc5ccccc5)cc4)c3c2)o1	280	870	26	27	650	–
CS(=O)(=O)CCNCc1ccc(-c2ccc3ncnc(Nc4ccc(OCc5cccc(F)c5)cc4)c3c2)o1	770	860	31	24	840	–
CS(=O)(=O)CCNCc1ccc(-c2ccc3ncnc(Nc4ccc(OCc5cccc(C(F)(F)F)c5)cc4)c3c2)o1	4200	5200	360	91	6900	–
CC(C)S(=O)(=O)CCNCc1ccc(-c2ccc3ncnc(Nc4ccc(OCc5cccc(F)c5)c(Cl)c4)c3c2)o1	200	130	24	–	–	> 30000
CS(=O)(=O)CCNCc1ccc(-c2ccc3ncnc(Nc4ccc(OCc5ccccc5)c(Br)c4)c3c2)o1	270	370	–	–	–	–
COc1cc(Nc2ncnc3ccc(-c4ccc(CNCCS(C)(=O)=O)o4)cc23)ccc1OCc1cccc(F)c1	2070	1900	–	–	–	–
CS(=O)(=O)CCOCc1ccc(-c2ccc3ncnc(Nc4ccc(OCc5cccc(F)c5)c(Cl)c4)c3c2)o1	170	–	17	26	–	> 30000
[O-][S+]1CCN(Cc2ccc(-c3ccc4ncnc(Nc5ccc(OCc6ccccc6)c(F)c5)c4c3)o2)CC1	1200	1130	35	16	1000	–
[O-][S+]1CCN(Cc2ccc(-c3ccc4ncnc(Nc5ccc(OCc6cccc(F)c6)c(C(F)(F)F)c5)c4c3)o2)CC1	3000	2090	141	89	1110	–
CS(=O)(=O)CCNCc1ccc(-c2ccc3ncnc(Nc4ccc(OCc5ccccc5)c(Cl)c4)c3c2)o1	250	280	22	18	250	–
CCCS(=O)(=O)CCNCc1ccc(-c2ccc3ncnc(Nc4ccc(OCc5cccc(F)c5)c(Cl)c4)c3c2)o1	3140	8660	26	21	1600	–
CS(=O)(=O)CCNCc1ccc(-c2ccc3ncnc(Nc4ccc(OCc5cccc(Br)c5)cc4)c3c2)o1	2130	3460	100	43	2560	–
CS(=O)(=O)CCNCc1ccc(-c2ccc3ncnc(Nc4ccc(OCc5ccccc5)c(C(F)(F)F)c4)c3c2)o1	10100	6500	200	160	5900	–
CS(=O)(=O)CCN(Cc1ccccc1)Cc1ccc(-c2ccc3ncnc(Nc4ccc(OCc5cccc(F)c5)c(Cl)c4)c3c2)o1	610	–	141	–	–	–
CS(=O)(=O)CCNCc1ccc(-c2ccc3ncnc(Nc4ccc(OCc5cccc(F)c5)c(C(F)(F)F)c4)c3c2)o1 [GW576484X]	4490	2890	220	80	1940	–
O=S(=O)(CCOCc1ccc(-c2ccc3ncnc(Nc4ccc(OCc5cccc(F)c5)c(Cl)c4)c3c2)o1)c1ccccc1 [GW615311X]	–	–	28	25	–	–
CS(=O)(=O)CCN(CC#N)Cc1ccc(-c2ccc3ncnc(Nc4ccc(OCc5cccc(F)c5)c(Cl)c4)c3c2)o1 [GW616030X]	67	–	22	27	–	> 30000
CS(=O)(=O)CCNCc1ccc(-c2ccc3ncnc(Nc4ccc(OCc5cccc(F)c5)c(Cl)c4)c3c2)o1 [LAPATINIB]	80	80	–	–	–	9900
